Where no end group is shown, it is not given here.
How the values were obtained:
[1] = test system: MCF-7 cells, pRGCΔFosLacZ reporter; assay: transient transfection, p53 reporter induction in MCF-7 cells; type: cell-based; details: transfected plasmid DNA, 48 hours after transfection
Description: (§1) The OSA cell line contains a highly elevated mdm2 level due to gene amplification (Florence et al., 1994). The U2-OS cell line has no gene amplification for mdm2 but has elevated levels of dmd2-mRNA (Florence et al. 1994). The MCF-7 cell line contains heterogenously expressed low levels of wild type p53 and no reported mdm2 elevation.
(§2) For transient transfection and reporter induction, cells are seeded into 6 well plates at 1.5×10^6 cell per well. They are grown to a density of 80% confluence and transfected using different Lipophilic reagents such Lipofectin and Lipofectamin from Promega or Dosper and Dotap from Boehringer. […] Two to four hours after transfection, complete medium is added. Forty-eight hours after transfection β-galactosidase activity is measured using […] (Boehringer) as a substrate. Cells are scraped into PBS and centrifuged. Pellets from each well are dissolved in 50 μl of Reporter Lysis buffer (Promega) and incubated on ice for 15 minutes. Soluble Lysates are incubated with CPRG in 100 mM phosphate buffer, pH 7.0. Optical Density at 595 nm is measured 1 to 24 hours later.

[2] = test system: OSA cells, pRGCΔFosLacZ reporter; assay: transient transfection, p53 reporter induction in OSA cells; type: cell-based, human; details: highly elevated mdm2, transfected plasmid DNA, 48 hours after transfection
Description: as §1, §2

[3] = test system: T22 cells stably transfected with pRGC ΔFosLacz, a p53 responsive β-galactosidase reporter; assay: p53 responsive β-galactosidase reporter after microinjection into T22 cells; type: cell-based, mouse; details: low level p53 and mdm2, 24 hours
Description: (§3) Antibodies or DNA encoding the described binding elements may be microinjected into Vrn.6 cells, a transformed rat thyroid epithelial cell line and T22 cells, a mouse prostrate derived cell line both cell lines being stably transfected with pRGC ΔFosLacz, a p53 responsive β-galactosidase reporter. […] Vrn.6 tolerate high levels of wild type p53 and overexpress MDM2 at a protein level. T22 cells typically contain low levels of p53 and mdm2.
(§4) For microinjection, cells may be seeded into tissue culture dishes and grown to 60–70% confluence. Microinjection may be performed using an Eppendorfer microinjection system (Microinjector 5242, Micromanipulator 5170) mounted to an Axiovert light microscope (Zeiss) having a heated stage.
(§5) Purified mouse monoclonal antibodies 3G5 and 4B2 may be injected intranuclearly and cytoplasmicly in PBS at a concentration of 1.3 mg/ml. Plasmid DNA encoding for TIP 12/1, TIP wt and Trx may be injected intronuclearly in water at a concentration of 0.25 mg 7 ml. Following microinjection, fresh medium may be added to the cell cultures and the cultures further incubated for 24 hours.
(§6) To detect β-galactosidase activity, cells may be washed with PBS and fixed with 2% formaldehyde, /0.2% glutaraldehyde in PBS for 5 minutes on ice. […]

[4] = test system: U2-OS cells, pRGCΔFosLacZ reporter; assay: transient transfection, p53 reporter induction in U2-OS cells; type: cell-based; details: transfected plasmid DNA, 48 hours after transfection
Description: as §1, §2

[5] = test system: Vrn.6 cells stably transfected with pRGC ΔFosLacz, a p53 responsive β-galactosidase reporter; assay: p53 responsive β-galactosidase reporter after microinjection into Vrn.6 cells; type: cell-based, rat; details: Vrn.6 cells having overexpressed MDM2; injected intranuclearly; 24 hours
Description: as §3, §4, §5, §6

[6] = test system: GST-hdm2, MBP-hdm2 or TRX-hdm2; assay: solution phase phage ELISA with hdm2 fusion proteins; type: binding, human; details: phages preincubated in solution with GST-hdm2, MBP-hdm2 or TRX-hdm2
Description: GST-, MBP-, TRX-hdm2 or baculovirus produced mdm2 (Sf9 cell extract) diluted in PBST-M are reacted in solution with hdm2- or GST-binding phage overnight at 4° C. Simultaneously, ELISA plates are coated with 100 μl Rabbit anti-mouse antibodies (DAKO, Z0259) 1:1000 in 0.1 M NaHCO3, pH 9.6. The plates are blocked as usual and incubated with monoclonal anti-mdm2 antibodies (hybridoma supernatant 1:5 diluted in PBST-M) for one hour. For the titration ELISA, purified SMP14 (8 μg/ml in PBS) is used to coat the plate directly. In either case, the pre-incubated phage-hdm2 samples are transfered to the coated and blocked plate and incubated for two hours at room temperature. Bound phages are detected as described.
For these experiment clones BB2/BB11 (GST binding control phage) and BB3/BB10 (hdm2 phage) are chosen. Phages are preincubated in solution with GST-hdm2, MBP-hdm2 or TRX-hdm2 and the phage-hdm2 complexes are transfered to wells which contain different monoclonal anti-mdm2 antibodies bound to the solid phase via anti-mouse antibodies. Bound phages are detected. […] All three anti-mdm2 antibodies used (SMP 14, 4B2, 3G5) are able to bind to hdm2 complexed with GST-phage. Antibody SMP14 is commercially available and described in Picksley et al., Oncogene 9, 2523–2529 (1994) incorporated by reference above. […] Phage-hdm2 complexes are pulled down by solid phase SMP14 and bound phages are detected. […]

Sequence of GST-hdm2, MBP-hdm2 or TRX-hdm2 (Q00987 1-188 limits assumed): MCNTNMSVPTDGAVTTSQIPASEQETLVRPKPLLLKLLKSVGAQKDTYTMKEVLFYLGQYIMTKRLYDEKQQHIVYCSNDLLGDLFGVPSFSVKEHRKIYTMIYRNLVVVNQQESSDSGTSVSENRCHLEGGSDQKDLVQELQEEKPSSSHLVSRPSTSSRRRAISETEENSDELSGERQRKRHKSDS

TIP 12/1: binding element: E. coli thioredoxin presenting the peptide insert of clone 12/1 in its active site, delivered as encoding plasmid DNA (MPRFMDYWEGLN; not fully specified; printed as M-P-R-F-M-D-Y-W-E-G-L-N)
induction of the p53 reporter (β-galactosidase activity) [1]: most induction
induction of the p53 reporter (β-galactosidase activity) [2]: Lower induction
β-galactosidase response (blue stained cells) of p53 reporter [3]: strong positive response
induction of the p53 reporter (β-galactosidase activity) [4]: most induction

Trx: negative control binding element comprising thioredoxin without a peptide insert [reference compound]
β-galactosidase response (blue stained cells) of p53 reporter [3]: No response
β-galactosidase response (blue stained cells) of p53 reporter [5]: not a positive response

PAFSRFWSADLSAGAH [BB3]
binding of phage to hdm2 fusion proteins [6]: recognizes all three hdm2 fusion proteins

From patent US7083983B2, “Inhibitors of the interaction between P53 and MDM2” (Cancer Research Campaign Technology Limited, priority 1996, dated 2006)
